Test results from ChEMBL document CHEMBL5036317, “Identification of Unique Quinazolone Thiazoles as Novel Structural Scaffolds for Potential Gram-Negative Bacterial Conquerors” (J Med Chem, 2021).
Converted amounts (≈) assume the structure as drawn. The source made the active and inactive calls. The calls are words filed in the database; no cut-off is given here.

Legend:
Staphylococcus aureus [1] = assay: Antibacterial activity against methicillin-resistant Staphylococcus aureus assessed as inhibition of bacterial growth measured after 24 hrs by two-fold serial dilution method; format: functional
Staphylococcus aureus [2] = assay: Antibacterial activity against Staphylococcus aureus ATCC 29213 assessed as inhibition of bacterial growth measured after 24 hrs by two-fold serial dilution method; format: functional
Cell membrane [3] = assay: Induction of cell membrane disruption in Pseudomonas aeruginosa assessed as reduction in LDH activity at 1 to 4 times MIC measured after 6 hrs; format: subcellular
Calf thymus DNA [4] = assay: Binding affinity to calf thymus DNA assessed as reduction in acridine orange-DNA complex formation by competitive binding assay; details: Bos taurus
Staphylococcus aureus [5] = assay: Antibacterial activity against Staphylococcus aureus assessed as inhibition of bacterial growth measured after 24 hrs by two-fold serial dilution method; format: functional
Cell membrane [6] = assay: Induction of cell membrane disruption in Pseudomonas aeruginosa assessed as increase in protein leakage at 1 to 6 times MIC measured after 6 hrs by Bradford assay
Escherichia coli [7] = assay: Antibacterial activity against Escherichia coli assessed as inhibition of bacterial growth measured after 24 hrs by two-fold serial dilution method; format: functional
Escherichia coli [8] = assay: Antibiofilm activity against Escherichia coli assessed as reduction in biofilm biomass at 0 to 6 times MIC measured after 24 hrs by crystal violet staining based assay; format: functional, organism-based
Escherichia coli [9] = assay: Antibacterial activity against Escherichia coli assessed as reduction in metabolic activity at 1 to 6 times MIC measured after 6 hrs by alamar blue assay; format: functional, organism-based
Staphylococcus aureus [10] = assay: Antibacterial activity against Staphylococcus aureus ATCC 25923 assessed as inhibition of bacterial growth measured after 24 hrs by two-fold serial dilution method; format: functional
Cell membrane [11] = assay: Induction of outer membrane permeabilization in Escherichia coli assessed as increase in NPN uptake by measuring increase in fluorescence intensity incubated for 5 mins by NPN-dye based fluorescence analysis
Pseudomonas aeruginosa [12] = assay: Antibacterial activity against Pseudomonas aeruginosa ATCC 27853 assessed as inhibition of bacterial growth measured after 24 hrs by two-fold serial dilution method; format: functional
Pseudomonas aeruginosa [13] = assay: Antibacterial activity against Pseudomonas aeruginosa assessed as inhibition of bacterial growth measured after 24 hrs by two-fold serial dilution method; format: functional
Pseudomonas aeruginosa [14] = assay: Antibiofilm activity against Pseudomonas aeruginosa assessed as reduction in biofilm biomass at 0 to 6 times MIC measured after 24 hrs by crystal violet staining based assay; format: functional, organism-based
Enterococcus faecalis = assay: Antibacterial activity against Enterococcus faecalis assessed as inhibition of bacterial growth measured after 24 hrs by two-fold serial dilution method; format: functional
Pseudomonas aeruginosa [15] = assay: Antibacterial activity against Pseudomonas aeruginosa assessed as reduction in metabolic activity at 1 to 6 times MIC measured after 6 hrs by alamar blue assay; format: functional, organism-based
Cell membrane [16] = assay: Induction of inner membrane permeabilization in Pseudomonas aeruginosa assessed as increase in PI uptake by measuring increase in fluorescence intensity incubated for 30 mins by propidium iodide staining based fluorescence analysis
Calf thymus DNA [17] = assay: Binding affinity to calf thymus DNA assessed as assessed as compound-DNA complex formation by measuring hypochromic shift by UV-visible absorption spectrophotometric method; format: tissue-based; details: Bos taurus
Cell membrane [18] = assay: Induction of cell membrane disruption in Escherichia coli assessed as increase in protein leakage at 1 to 6 times MIC measured after 6 hrs by Bradford assay
Klebsiella pneumoniae = assay: Antibacterial activity against Klebsiella pneumoniae assessed as inhibition of bacterial growth measured after 24 hrs by two-fold serial dilution method; format: functional
Pseudomonas aeruginosa [19] = assay: Induction of ROS generation in Pseudomonas aeruginosa measured after 6 hrs by DCFH-DA staining based assay; format: functional, organism-based
Cell membrane [20] = assay: Induction of cytoplasmic membrane depolarization in Escherichia coli assessed as increase in fluorescence intensity at 0 to 6 times MIC by DiSC3-5 dye based fluorescence assay; format: subcellular
Escherichia coli [21] = assay: Induction of ROS generation in Escherichia coli measured after 6 hrs by DCFH-DA staining based assay; format: functional, organism-based
Escherichia coli [22] = assay: Antibacterial activity against Escherichia coli assessed as drug resistance treated for 16 serial passages and measured every 24 hrs; format: functional, organism-based
[23] = Haemolytic activity in human erythrocytes incubated for 2 hrs; format: ADME, cell-based, Erythrocyte
Cell membrane [24] = assay: Induction of outer membrane permeabilization in Pseudomonas aeruginosa assessed as increase in NPN uptake by measuring increase in fluorescence intensity incubated for 5 mins by NPN-dye based fluorescence analysis
Escherichia coli [25] = assay: Antibacterial activity against Escherichia coli ATCC 25922 assessed as inhibition of bacterial growth measured after 24 hrs by two-fold serial dilution method; format: functional
Cell membrane [26] = assay: Induction of inner membrane permeabilization in Escherichia coli assessed as increase in PI uptake by measuring increase in fluorescence intensity incubated for 30 mins by propidium iodide staining based fluorescence analysis
Pseudomonas aeruginosa [27] = assay: Antibacterial activity against Pseudomonas aeruginosa assessed as drug resistance treated for 16 serial passages and measured every 24 hrs; format: functional, organism-based
Acinetobacter baumannii = assay: Antibacterial activity against Acinetobacter baumanii assessed as inhibition of bacterial growth measured after 24 hrs by two-fold serial dilution method; format: functional
Cell membrane [28] = assay: Induction of cell membrane disruption in Escherichia coli assessed as reduction in LDH activity at 1 to 4 times MIC measured after 6 hrs; format: subcellular
Cell membrane [29] = assay: Induction of cytoplasmic membrane depolarization in Pseudomonas aeruginosa assessed as increase in fluorescence intensity at 0 to 6 times MIC by DiSC3-5 dye based fluorescence assay; format: subcellular
Escherichia coli [30] = assay: Antibacterial activity against Escherichia coli assessed as drug resistance by measuring fold change in MIC treated for 16 serial passages and measured every 24 hrs; format: functional
Pseudomonas aeruginosa [31] = assay: Antibacterial activity against Pseudomonas aeruginosa assessed as drug resistance by measuring fold change in MIC treated for 16 serial passages and measured every 24 hrs; format: functional

In the case of `O=C(/C(=C/c1ccc(C(F)(F)F)cc1)n1cnc2cc(Cl)ccc2c1=O)c1nccs1`, the MIC (Staphylococcus aureus [1]) is reported as 4 µg/mL (≈ 8.66 µM), the MIC (Staphylococcus aureus [2]) is reported as 1 µg/mL (≈ 2.17 µM) and the Activity (Cell membrane [3]) is reported as “Active”. The Activity (Calf thymus DNA [4]) was “Active”, the MIC (Staphylococcus aureus [5]) was 32 µg/mL (≈ 69.3 µM) and the Activity (Cell membrane [6]) was “Active”. The MIC (Escherichia coli [7]) was 1 µg/mL (≈ 2.17 µM), the Activity (Escherichia coli [8]) was “Active” and the Activity (Escherichia coli [9]) was “Active”. The MIC (Staphylococcus aureus [10]) was 2 µg/mL (≈ 4.33 µM), the Activity (Cell membrane [11]) was “Dose-Dependent Effect” and the MIC (Pseudomonas aeruginosa [12]) was 1 µg/mL (≈ 2.17 µM). The MIC (Pseudomonas aeruginosa [13]) was 1 µg/mL (≈ 2.17 µM), the Activity (Pseudomonas aeruginosa [14]) was “Active” and the MIC (Enterococcus faecalis) was 2 µg/mL (≈ 4.33 µM). The Activity (Pseudomonas aeruginosa [15]) was “Active”, the Activity (Cell membrane [16]) was “Dose-Dependent Effect” and the Activity (Calf thymus DNA [17]) was “Active”. For the same compound, the Activity (Cell membrane [18]) was “Active”, the MIC (Klebsiella pneumoniae) was 1 µg/mL (≈ 2.17 µM) and the Activity (Pseudomonas aeruginosa [19]) was “Dose-Dependent Effect”. For the same compound, the Activity (Cell membrane [20]) was “Active”, the Activity (Escherichia coli [21]) was “Dose-Dependent Effect” and the Activity (Escherichia coli [22]) was “inactive”. The HC50 at 2 h [23] was > 250 µg/mL, the Activity (Cell membrane [24]) was “Dose-Dependent Effect” and the MIC (Escherichia coli [25]) was 2 µg/mL (≈ 4.33 µM). The Activity (Cell membrane [26]) was “Dose-Dependent Effect”, the Activity (Pseudomonas aeruginosa [27]) was “inactive” and the MIC (Acinetobacter baumannii) was 8 µg/mL (≈ 17.3 µM). The Activity (Cell membrane [28]) was “Active” and the Activity (Cell membrane [29]) was “Active”.
`CCn1cc(C(=O)O)c(=O)c2cc(F)c(N3CCNCC3)cc21` [NORFLOXACIN] showed an MIC (Staphylococcus aureus [1]) of 8 µg/mL (≈ 25.1 µM), an MIC (Staphylococcus aureus [2]) of 1 µg/mL (≈ 3.13 µM) and an MIC (Staphylococcus aureus [5]) of 4 µg/mL (≈ 12.5 µM). The MIC (Escherichia coli [7]) was 4 µg/mL (≈ 12.5 µM), the MIC (Staphylococcus aureus [10]) was 2 µg/mL (≈ 6.26 µM) and the MIC (Pseudomonas aeruginosa [12]) was 0.5 µg/mL (≈ 1.57 µM). It also gave an MIC (Pseudomonas aeruginosa [13]) of 4 µg/mL (≈ 12.5 µM), an MIC (Enterococcus faecalis) of 4 µg/mL (≈ 12.5 µM) and an MIC (Klebsiella pneumoniae) of 2 µg/mL (≈ 6.26 µM). For the same compound, the “fold change (FC)” value (Escherichia coli [30]) was 32, the “fold change (FC)” value (Pseudomonas aeruginosa [31]) was 32 and the MIC (Escherichia coli [25]) was 2 µg/mL (≈ 6.26 µM). The MIC (Acinetobacter baumannii) was 2 µg/mL (≈ 6.26 µM).
In the case of `O=C(/C(=C/c1nccs1)n1cnc2cc(Cl)ccc2c1=O)c1nccs1`, the MIC (Staphylococcus aureus [1]) is reported as 4 µg/mL (≈ 9.98 µM), the MIC (Staphylococcus aureus [2]) is reported as 2 µg/mL (≈ 4.99 µM) and the MIC (Staphylococcus aureus [5]) is reported as 2 µg/mL (≈ 4.99 µM). For the same compound, the MIC (Escherichia coli [7]) was 16 µg/mL (≈ 39.9 µM), the MIC (Staphylococcus aureus [10]) was 2 µg/mL (≈ 4.99 µM) and the MIC (Pseudomonas aeruginosa [12]) was 4 µg/mL (≈ 9.98 µM). For the same compound, the MIC (Pseudomonas aeruginosa [13]) was 16 µg/mL (≈ 39.9 µM), the MIC (Enterococcus faecalis) was 1 µg/mL (≈ 2.49 µM) and the MIC (Klebsiella pneumoniae) was 4 µg/mL (≈ 9.98 µM). For the same compound, the HC50 at 2 h [23] was 115 µg/mL, the MIC (Escherichia coli [25]) was 4 µg/mL (≈ 9.98 µM) and the MIC (Acinetobacter baumannii) was 16 µg/mL (≈ 39.9 µM).
Compound `O=C(/C(=C/c1ccc(Cl)cc1)n1cnc2cc(Cl)ccc2c1=O)c1nccs1` has an MIC (Staphylococcus aureus [1]) of 8 µg/mL (≈ 18.7 µM), an MIC (Staphylococcus aureus [2]) of 4 µg/mL (≈ 9.34 µM) and an MIC (Staphylococcus aureus [5]) of 16 µg/mL (≈ 37.4 µM). The MIC (Escherichia coli [7]) was 16 µg/mL (≈ 37.4 µM), the MIC (Staphylococcus aureus [10]) was 4 µg/mL (≈ 9.34 µM) and the MIC (Pseudomonas aeruginosa [12]) was 1 µg/mL (≈ 2.33 µM). The MIC (Pseudomonas aeruginosa [13]) was 2 µg/mL (≈ 4.67 µM), the MIC (Enterococcus faecalis) was 4 µg/mL (≈ 9.34 µM) and the MIC (Klebsiella pneumoniae) was 64 µg/mL (≈ 149 µM). For the same compound, the HC50 at 2 h [23] was > 250 µg/mL, the MIC (Escherichia coli [25]) was 2 µg/mL (≈ 4.67 µM) and the MIC (Acinetobacter baumannii) was 256 µg/mL (≈ 598 µM).
